Measurements from ChEMBL document CHEMBL3507680, “University of Dundee, Gates Library screen for HepG2 cell viability”.

Assay: Human HepG2 cell viability assay in 384 well format
Assay type: toxicity, cell-based
Set-up: dose 125 nL, time 70.5 hour; concentration not given beside the values
Conditions: HepG2 cells, read-out: Inhibition

SMILES | cytotoxicity at 70.5 h [%]
O=C(CCn1ncc2c(Cl)cccc21)NCCCn1cccn1 | -5.51
Cc1ccsc1CN(CCCO)Cc1nc2ccccc2[nH]1 | -1.23
COCC(=O)N[C@@H]1CN(Cc2ccc3c(c2)OCCO3)C[C@H]1O | 9.74
COCCNc1cccc(C2CCCN2)n1 (configuration not stated) | -6.3
O=C(CCN1CCc2ccccc21)N1C[C@@H](O)[C@H](N2CCOCC2)C1 | -3
CC1(C2CCN(CCCC(=O)O)CC2)CN(Cc2ccccc2)C(=O)O1 (configuration not stated) | 2.48
CN(C)C(=O)CN1CCC2(CC1)C[C@@H](O)[C@H](c1ccccc1)NC2=O | -8.01
Cc1cccnc1CN1CC[C@@](C)(O)[C@H](Oc2ccccc2)C1 | -7.26
O[C@H]1CN(Cc2cc3ccccc3o2)CC[C@@]12CCCO2 | -8.98
CNc1cc(C2CN(CC(=O)N(C)C)CCO2)nc(C)n1 (configuration not stated) | -5.66
Cc1cnc(C2(C)CCN(Cc3cscn3)CC2)s1 | -6.19
CCS(=O)(=O)N1CCCC(c2ccnc(N(C)C)c2)C1 (configuration not stated) | -6.79
CN(C)c1nccc(C2CN(C(=O)CO)C2)n1 | -4.15
CC(=O)N1CCc2nnc(C3CCCCN3CC3CCCCC3)n2CC1 (configuration not stated) | 12.6
O=C(O)c1cccc(CN2CCC(c3ccnc4ccnn34)CC2)c1 | -8.88
Cc1cc(C2CCCCN2C(=O)c2ccsc2)nc2nccn12 (configuration not stated) | 6.22
Cc1cc(C2CCCCN2C(=O)c2cccn2C)nc2nccn12 (configuration not stated) | 4.86
O=C(NCCNC1CCCC1)c1cccs1 | -6.72
COCC(=O)N1CCCC(c2csc(NC(C)=O)n2)C1 (configuration not stated) | -8.74
CC(=O)N1CCOC(c2nc(N(C)C)ncc2-c2cccc(F)c2)C1 (configuration not stated) | -7.24
Cc1nccc(N2CCCC(C)(C(=O)NC3CCCC3)C2)n1 (configuration not stated) | -15.1
Fc1ccccc1-c1nccnc1C1CCCNC1 (configuration not stated) | -8.72
CNc1cc(C2CCCN(S(=O)(=O)c3cn[nH]c3)C2)ccn1 (configuration not stated) | -16.1
Cc1c[nH]c(C2COCCN2S(=O)(=O)c2cn[nH]c2)n1 (configuration not stated) | -12.8

SMILES | cytotoxicity at 70.5 h [%]
CS(=O)(=O)N1CCCC1Cn1cccn1 (configuration not stated) | 2.44
CC1(C(=O)NC2CCCC2)CCCN(c2cnccn2)C1 (configuration not stated) | -6.96
CN(C)c1nccc(C2CCCN2S(=O)(=O)c2cn(C)cn2)n1 (configuration not stated) | -15.2
O=C1CO[C@H]2CN(Cc3cccc4[nH]ccc34)C[C@@H]2N1C1CCOCC1 | 5.48
Cc1ccc(Nc2nccc(C3CN(C(C)C)C3)n2)nc1 | 42.5
O=C(Nc1ccccn1)C1CCN(C(=O)COc2ccccc2F)C1 (configuration not stated) | 18.6
CN1CCNC(Cc2ccc(-c3ccccc3)cc2)C1=O (configuration not stated) | 21.5
CNc1cc(C2CCCN2S(=O)(=O)c2cccc(F)c2)ccn1 (configuration not stated) | 14.1
Cn1nccc1C(=O)N1CCCC1c1[nH]ncc1C(N)=O (configuration not stated) | -6.47
Cc1sc2c(C3CCCN(S(C)(=O)=O)C3)nc(C)n2c1C (configuration not stated) | -9.83
Fc1ccc(N2CCOC(Cc3cccnc3)C2)cc1 (configuration not stated) | -9.3
Cc1cc(CCC(=O)O)nc(C2CCCN2c2ccnc(C)n2)n1 (configuration not stated) | -6.16
Cc1cc(N2CCC(c3n[nH]c4nccnc34)CC2)ncn1 | 19
COCCN1CCCC(Cc2ccc(N3CCOCC3)nn2)C1 (configuration not stated) | -7.53
Cn1cc(C(=O)N2CCCC2c2[nH]ncc2C(N)=O)cn1 (configuration not stated) | -5.5
COCCn1cnnc1C1CCCN(c2cnccn2)C1 (configuration not stated) | -5.97
Cc1ccnn1CCC(=O)N1CCC(c2cnccn2)CC1 | -7.09
CCN(Cc1ccncc1)CC1(O)CCN(C(=O)c2cccc(C)n2)C1 (configuration not stated) | -4.96
CNc1cncc(C2CCCN2S(=O)(=O)c2ccc(F)cc2)n1 (configuration not stated) | -2.18
Cc1cc(C)nc(C2CCN(C(=O)c3cnc(N(C)C)nc3)C2)n1 (configuration not stated) | -4.6
Cn1c(CN2CCOC(CCc3ccncn3)C2)nc2ccccc21 (configuration not stated) | -3.77
Cc1ccc([C@@]2(O)CC[C@@H]3CN(S(=O)(=O)c4cn(C)nc4C)C[C@@H]32)cc1 | -2.34
Cc1noc(C)c1-c1nc(N(C)CCN(C)C)ncc1-c1cnccn1 | -6.02
CN1CCNC(Cc2ccc(-c3cccs3)cc2)C1=O (configuration not stated) | -6.3

SMILES | cytotoxicity at 70.5 h [%]
CC(=O)N1CCC(Cc2cnc(-c3c(C)n[nH]c3C)cn2)CC1 | 18.9
CNC(=O)c1cn[nH]c1C1CCCN1C(=O)c1cccnc1 (configuration not stated) | -4.17
c1ccc(CO[C@H]2C[C@@H]3CN(Cc4cncnc4)C[C@@H]3C2)cc1 | -5.58
Cc1cc(C(N)=O)nc(C2(C)CCCN2Cc2cnn(C)c2)n1 (configuration not stated) | -4.52
Cc1nc(CN2CCCC(c3nc(C)n4c(C)c(C)sc34)C2)co1 (configuration not stated) | 21
COCCc1ncc(CNC2(c3ccc(Cl)cc3Cl)CC2)cn1 | -1.55
Cc1nc(C)c(C(=O)N2CCCC(c3cnccn3)C2)s1 (configuration not stated) | -2.44
CC(C)CC(=O)N1CCC(c2nnc3n2CCCCC3)CC1 | -0.981
Cc1ccc(CN(C)C(=O)NCC(C)(C)S(C)(=O)=O)s1 | -2.7
CC(C)c1ncc2c(n1)CN(CC1CCCCO1)CC2 (configuration not stated) | -2.55
Cc1cccc(C(=O)N(CCCO)S(=O)(=O)c2cccs2)c1 | -0.969
CCC1CCCCN1S(=O)(=O)c1c(C)noc1C (configuration not stated) | -7.69
Cc1ccnc(NC(=O)C2CCCO2)c1 (configuration not stated) | 6.19
CCNC(=O)CN(CC)C(=O)c1cccc(Nc2cnn(C)c2)c1 | 6.01
COC1CCN(C(=O)c2ccc3ncsc3c2)CC1 | -2.33
CCn1cnnc1CNC(=O)NC(c1ccc(OC)cc1)C1CC1 (configuration not stated) | -6.45
CCC(NC(=O)NCc1nncn1CC)c1ccc(OC)cc1 (configuration not stated) | -9.27
O=c1cc(CN(CCO)C2CC2)nc2ccc(Br)cn12 | -4.99
CN(CCO)Cc1cc(=O)n2cc(Br)ccc2n1 | -1.02
CCN(Cc1cc(=O)n2cc(Br)ccc2n1)C1CC1 | -7.36
O=C(Cc1cccs1)NCCNc1nccc(C(F)(F)F)n1 | -3.67
CCCS(=O)(=O)N1CCCC(c2nc(-c3ccccc3)c[nH]2)C1 (configuration not stated) | -2.79
CC(C)(C)C(=O)NCCC(=O)Nc1cc(C#N)cn1C(C)(C)C | -4.11
O=C(O)c1ccc(-c2cscn2)cc1 | -6.68

SMILES | cytotoxicity at 70.5 h [%]
CC(C)COc1cncc(NCc2nnc3ccccn23)n1 | -3.83
CC(C)(C)n1cc(C#N)cc1NC(=O)CCS(=O)(=O)C1CCCC1 | 0.563
CCSCc1ccnc(NC(=O)C2CCOC2)c1 (configuration not stated) | -4
COc1ccncc1NCc1ccsc1 | -2.45
CC(Cc1cccc(Cl)c1)NC(=O)NCc1ncnn1C (configuration not stated) | 11.1
CN(C)C(=O)CCC[S+]([O-])Cc1cc(Cl)ccc1Cl (configuration not stated) | -3.61
CN(C)C(=O)CCC[S+]([O-])Cc1ccc(Cl)c(Cl)c1 (configuration not stated) | -3.04
CN(C)C(=O)CCC[S+]([O-])Cc1ccc(F)c(F)c1 (configuration not stated) | 13.1
COc1cc(CNc2nc(C(F)(F)F)no2)cc(OC)c1OC | -4.05
O=S(=O)(c1ccc(Cl)s1)N1CCCC(c2ncc[nH]2)C1 (configuration not stated) | -1.59
CCc1ccc(S(=O)(=O)N2CCCC(c3ncc[nH]3)C2)s1 (configuration not stated) | -4.54
COc1cc(CO)ccc1OCc1nc(C(C)C)no1 | -3.56
CCSCc1ccnc(NC(=O)C2CCCO2)c1 (configuration not stated) | -2.71
COC(=O)NCC(=O)N1CCCC1c1nc(-c2ccccc2F)c[nH]1 (configuration not stated) | -3.18
Cc1ccccc1C(C)NC(=O)CN1CCN(Cc2ccc(Br)s2)CC1 (configuration not stated) | 18.7
NC(=O)CS(=O)(=O)Cc1ccc(F)cc1 | -1.66
O=C(CCC1CCCC1)NCc1nnc2ccccn12 | -10.1
O=C1CC(N(C(=O)Cc2csc(-c3ccccc3)n2)C2CC2)C(=O)N1 (configuration not stated) | -1.89
COC(=O)c1cccc(S(=O)(=O)Nc2ncc(C)s2)c1 | 0.827
N#CCCN(CCC#N)C(=O)COC1CCCCC1 | -6.88
Cc1nc2cc(=O)[nH]n2c(C)c1CNC(=O)C(C)(C)c1ccccc1 | -1.88
Cc1ccc(CC(=O)NCC(O)c2ccc(Cl)cc2Cl)cn1 (configuration not stated) | 3.42
O=C(CCC1CCCC1)N1CCC(O)(C(F)(F)F)C1 (configuration not stated) | -0.869
CSCC(C)C(=O)NCc1c(C)nc2cc(=O)[nH]n2c1C (configuration not stated) | 7.35

SMILES | cytotoxicity at 70.5 h [%]
CC(C)Cn1cnc(S(=O)(=O)Nc2cccnc2-n2cccn2)c1 | -1.98
O=C(NC(c1ccc(Cl)cc1)C(F)(F)F)c1nc(=O)[nH][nH]1 (configuration not stated) | 29.9
Cn1c(N)nnc1SC1CCCN(c2ccccc2)C1=O (configuration not stated) | -1
CCN(C(=O)Cc1ccc(NCc2ncc[nH]2)cc1)c1ccccc1 | -5.61
O=C(NC(CC(F)(F)F)c1ccc(Cl)cc1)c1nc(=O)[nH][nH]1 (configuration not stated) | 0.759
CCn1cc(S(=O)(=O)Nc2cccnc2-n2cccn2)nc1C | -2.93
COCC(O)CN1CCC(NC(=O)c2cccc(C)c2)CC1 (configuration not stated) | -2.52
COc1cc(F)cc(CNC(=O)Nc2ccn(CC(F)F)n2)c1 | -2.34
CCOc1ccc(NC(=O)c2oc(CC)cc2C)cc1CO | -3.11
c1csc(-c2noc(CCCNC3CCc4ncnn4C3)n2)c1 (configuration not stated) | -4.28
COC(=O)c1cccc(C(=O)N(C)Cc2cccc(F)c2)c1 | 5.14
O=C(NC1CCCC1)c1ccc(C2CCCNC2)nc1 (configuration not stated) | 9.52
O=C(NCCO)C1(Cc2ccccc2-c2cccnc2)CCOCC1 | -10.7
Cc1nc(C2(O)CCCNCC2)sc1CCOc1ccccc1F (configuration not stated) | 2.34
CN(C)c1ncc(-c2cccc(F)c2)c(C2CNCCO2)n1 (configuration not stated) | -5.48
O=S(=O)(N1CCCC1)N1C[C@@H](c2cccc(F)c2)[C@@H]2NCCCCC[C@H]21 | -6.83
COc1ccc2ccccc2c1CNCC1CCS(=O)(=O)C1 (configuration not stated) | -8.26
Cc1noc(C)c1-c1nc(C2CCCNC2)ccc1CO (configuration not stated) | -5.83
CN(C)C(=O)c1ccc(C2CCCNC2)nc1 (configuration not stated) | -6.57
COc1ncc(CN(CCCN2CCOCC2)Cc2ccc(C)o2)cn1 | -4.04
O=C(CN1CCCCC1)N1CCC(c2cc(=O)n3c(n2)CCCCC3)C1 (configuration not stated) | -1.74
